Source: US20220054513A1, “COMBINATION COMPOSITIONS COMPRISING A BETA-LACTAMASE INHIBITOR” (VenatoRx Pharmaceuticals, Inc., priority 2018, published 2022)
Read-outs that look alike come from different tables or passages of the source.

Experiments:
[1] = test system: β-lactamase expressing K. pneumoniae; test: broth microdilution MIC of cefiderocol +/- Compound 1, K. pneumoniae strains; type: cell-based; settings: Klebsiella pneumoniae
MDR-Acinetobacter = test: broth microdilution MIC of cefiderocol +/- Compound 1 in IDM, panel of 40 MDR Acinetobacter; type: cell-based, A. baumannii; settings: for MIC: read-out: Minimum inhibitory concentration (MIC)
[2] = test system: β-lactamase expressing P. mirabilis; test: broth microdilution MIC of cefiderocol +/- Compound 1, P. mirabilis strain; type: cell-based; settings: Proteus mirabilis, read-out: Minimum inhibitory concentration (MIC), P. mirabilis CDC-159 (NDM)
[3] = test system: metallo- and serine-β-lactamase expressing CRE; test: checkerboard assay of cefiderocol and Compound 1 in IDM, 22 CRE isolates; type: cell-based, Enterobacteriaceae; settings: Compound 1 0 μg/mL
[4] = Acinetobacter baumannii, panel of 40 MDR Acinetobacter, IDM

## CC(C)(O/N=C(\C(=O)N[C@@H]1C(=O)N2C(C(=O)[O-])=C(C[N+]3(CCNC(=O)c4ccc(O)c(O)c4Cl)CCCC3)CS[C@H]12)c1csc(N)n1)C(=O)O [FDC, cefiderocol]
[1]; read-out: Minimum inhibitory concentration (MIC), K. pneumoniae 847375 (SHV-12, KPC-2), MHBII
  MIC: 32 µg/mL
[1]; read-out: Minimum inhibitory concentration (MIC), K. pneumoniae 847747 (CTX-M-2, KPC), IDM
  MIC: 0.125 µg/mL
[1]; read-out: Minimum inhibitory concentration (MIC), K. pneumoniae 847747 (CTX-M-2, KPC), MHBII
  MIC: 8 µg/mL
[1]; read-out: Minimum inhibitory concentration (MIC), K. pneumoniae KIRK (OXA-162), IDM
  MIC: 0.25 µg/mL
[1]; read-out: Minimum inhibitory concentration (MIC), K. pneumoniae KIRK (OXA-162), MHBII
  MIC: 32 µg/mL
[1]; read-out: Minimum inhibitory concentration (MIC), K. pneumoniae KPC157 (KPC-3), IDM
  MIC: 0.5 µg/mL
[1]; read-out: Minimum inhibitory concentration (MIC), K. pneumoniae KPC157 (KPC-3), MHBII
  MIC: 8 µg/mL
[1]; read-out: Minimum inhibitory concentration (MIC), K. pneumoniae KPC261 (KPC-2), IDM
  MIC: 0.5 µg/mL
[1]; read-out: Minimum inhibitory concentration (MIC), K. pneumoniae KPC261 (KPC-2), MHBII
  MIC: 16 µg/mL
[1]; read-out: Minimum inhibitory concentration (MIC), K. pneumoniae OMAN 13 (NDM-1), IDM
  MIC: 2 µg/mL
[1]; read-out: Minimum inhibitory concentration (MIC), K. pneumoniae OMAN 13 (NDM-1), MHBII
  MIC: 32 µg/mL
[1]; read-out: Minimum inhibitory concentration (MIC), K. pneumoniae SI-117 (VIM-1), IDM
  MIC: 4 µg/mL
[1]; read-out: Minimum inhibitory concentration (MIC), K. pneumoniae SI-117 (VIM-1), MHBII
  MIC: 16 µg/mL
MDR-Acinetobacter; A. baumannii 157076, IDM
  Minimum inhibitory concentration (MIC): 0.125 µg/mL
MDR-Acinetobacter; A. baumannii 157078, IDM
  Minimum inhibitory concentration (MIC): 0.125 µg/mL
MDR-Acinetobacter; A. baumannii 161761, IDM
  Minimum inhibitory concentration (MIC): 0.125 µg/mL
MDR-Acinetobacter; A. baumannii 163264, IDM
  Minimum inhibitory concentration (MIC): 0.125 µg/mL
MDR-Acinetobacter; A. baumannii 164890, IDM
  Minimum inhibitory concentration (MIC): 0.125 µg/mL
MDR-Acinetobacter; A. baumannii 164891, IDM
  Minimum inhibitory concentration (MIC): 0.125 µg/mL
MDR-Acinetobacter; A. baumannii 165039, IDM
  Minimum inhibitory concentration (MIC): 0.125 µg/mL
MDR-Acinetobacter; A. baumannii CDC-0056, IDM
  Minimum inhibitory concentration (MIC): 0.125 µg/mL
MDR-Acinetobacter; Acinetobacter baumannii, A. baumannii 0045, IDM
  MIC: 0.5 µg/mL
MDR-Acinetobacter; Acinetobacter baumannii, A. baumannii 157070, IDM
  MIC: 0.25 µg/mL
MDR-Acinetobacter; Acinetobacter baumannii, A. baumannii 157071, IDM
  MIC: 0.03 µg/mL
MDR-Acinetobacter; Acinetobacter baumannii, A. baumannii 157072, IDM
  MIC: 0.25 µg/mL
MDR-Acinetobacter; Acinetobacter baumannii, A. baumannii 157074, IDM
  MIC: 0.06 µg/mL
MDR-Acinetobacter; Acinetobacter baumannii, A. baumannii 157079, IDM
  MIC: 0.5 µg/mL
MDR-Acinetobacter; Acinetobacter baumannii, A. baumannii 157865, IDM
  MIC: 4 µg/mL
MDR-Acinetobacter; Acinetobacter baumannii, A. baumannii 161754, IDM
  MIC: 0.25 µg/mL
MDR-Acinetobacter; Acinetobacter baumannii, A. baumannii 161763, IDM
  MIC: 0.5 µg/mL
MDR-Acinetobacter; Acinetobacter baumannii, A. baumannii 163169, IDM
  MIC: 0.03 µg/mL
MDR-Acinetobacter; Acinetobacter baumannii, A. baumannii 164899, IDM
  MIC: 0.25 µg/mL
MDR-Acinetobacter; Acinetobacter baumannii, A. baumannii CDC-0033, IDM
  MIC: 0.5 µg/mL
MDR-Acinetobacter; Acinetobacter baumannii, A. baumannii CDC-0035, IDM
  MIC: 0.25 µg/mL
MDR-Acinetobacter; Acinetobacter baumannii, A. baumannii CDC-0036, IDM
  MIC: 1 µg/mL
MDR-Acinetobacter; Acinetobacter baumannii, A. baumannii CDC-0037, IDM
  MIC: 4 µg/mL
MDR-Acinetobacter; Acinetobacter baumannii, A. baumannii CDC-0052, IDM
  MIC: 8 µg/mL
MDR-Acinetobacter; Acinetobacter baumannii, A. baumannii CDC-0063, IDM
  MIC: 0.5 µg/mL
MDR-Acinetobacter; Acinetobacter baumannii, A. baumannii CDC-0070, IDM
  MIC: 0.25 µg/mL
MDR-Acinetobacter; Acinetobacter baumannii, A. baumannii CDC-0078, IDM
  MIC: 0.5 µg/mL
MDR-Acinetobacter; Acinetobacter baumannii, A. baumannii CDC-0083, IDM
  MIC: 1 µg/mL
MDR-Acinetobacter; Acinetobacter baumannii, A. baumannii CDC-0088, IDM
  MIC: 8.1 µg/mL
MDR-Acinetobacter; Acinetobacter baumannii, A. baumannii CDC-0101, IDM
  MIC: 0.06 µg/mL
MDR-Acinetobacter; Acinetobacter baumannii, A. baumannii CDC-0102, IDM
  MIC: 1 µg/mL
MDR-Acinetobacter; Acinetobacter baumannii, A. baumannii GM235, IDM
  MIC: 1 µg/mL
MDR-Acinetobacter; Acinetobacter baumannii, A. baumannii GM236, IDM
  MIC: 0.03 µg/mL
MDR-Acinetobacter; Acinetobacter baumannii, A. baumannii GM237, IDM
  MIC: 0.25 µg/mL
MDR-Acinetobacter; Acinetobacter baumannii, A. baumannii GM238, IDM
  MIC: 0.25 µg/mL
MDR-Acinetobacter; Acinetobacter baumannii, A. baumannii GM239, IDM
  MIC: 2 µg/mL
MDR-Acinetobacter; Acinetobacter baumannii, A. baumannii SI-141, IDM
  MIC: 4 µg/mL
MDR-Acinetobacter; Acinetobacter baumannii, ATCC17978, A. baumannii ATCC 17978, IDM
  MIC: 0.25 µg/mL
MDR-Acinetobacter; Acinetobacter baumannii, NCTC13301, A. baumannii NCTC 13301, IDM
  MIC: 1 µg/mL
MDR-Acinetobacter; Acinetobacter baumannii
  MIC: 0.125 µg/mL
MDR-Acinetobacter; [4]
  MIC50: 0.25 µg/mL
  MIC90: 4 µg/mL
[2]; IDM
  MIC: 4 µg/mL
[2]; MHBII
  MIC: 32 µg/mL
[3]; cefiderocol 0.06 μg/mL
  % of strains inhibited: 5%
[3]; cefiderocol 0.125 μg/mL
  % of strains inhibited: 5%
[3]; cefiderocol 0.25 μg/mL
  % of strains inhibited: 5%
[3]; cefiderocol 0.5 μg/mL
  % of strains inhibited: 15%
[3]; cefiderocol 1 μg/mL
  % of strains inhibited: 20%
[3]; cefiderocol 2 μg/mL
  % of strains inhibited: 60%
[3]; cefiderocol 4 μg/mL
  % of strains inhibited: 75%
[3]; cefiderocol 8 μg/mL
  % of strains inhibited: 90%
[3]; cefiderocol 16 μg/mL
  % of strains inhibited: 90%
[3]; cefiderocol 32 μg/mL
  % of strains inhibited: 95%
